# Patent publication US7700584B2 (Hangzhou Minsheng Pharmaceuticals Co., Ltd., priority 2004, dated 2010)
# Read-outs that look alike come from different tables or passages of the source.
# Tests used:
# [1] = test system: U-937 human histocytic lymphoma; test: In vitro inhibition rate to tumor cells (MTT), U-937; assay type: cell-based; conditions: for inhibition rate, Results (%) U-937: 50 μg/ml; for inhibition at 50 µg/mL: Homo sapiens, U-937, 50 μg/ml, read-out: inhibition rate, Results (%) U-937
# [2] = test system: A-549 human lung adenocarcinoma; test: In vitro inhibition rate to tumor cells (MTT), A-549; assay type: cell-based; conditions: for inhibition rate, Results (%) A-549: 50 μg/ml; for inhibition at 50 µg/mL: Homo sapiens, A549, 50 μg/ml, read-out: inhibition rate, Results (%) A-549
# [3] = test system: Bel-7402 human hepatic carcinoma; test: In vitro inhibition rate to tumor cells (MTT), Bel-7402; assay type: cell-based; conditions: for inhibition rate, Results (%) Bel-7402: 50 μg/ml; for inhibition at 50 µg/mL: Homo sapiens, Bel-7402, 50 μg/ml, read-out: inhibition rate, Results (%) Bel-7402
# [4] = test system: MCF-7 human mammary adenocarcinoma; test: In vitro inhibition rate to tumor cells (MTT), MCF-7; assay type: cell-based; conditions: for inhibition rate, Results (%) MCF-7: 50 μg/ml; for inhibition at 50 µg/mL: Homo sapiens, MCF7, 50 μg/ml, read-out: inhibition rate, Results (%) MCF-7
# [5] = test system: SMMC-7721 human hepatic carcinoma; test: In vitro inhibition rate to tumor cells (MTT), SMMC-7721; assay type: cell-based; conditions: for inhibition rate, Results (%) SMMC-7721: 50 μg/ml; for inhibition at 50 µg/mL: Homo sapiens, SMMC-7721, 50 μg/ml, read-out: inhibition rate, Results (%) SMMC-7721
# [6] = test system: HL-60 human promyelocytic leukemia; test: In vitro inhibition rate to tumor cells (MTT), HL-60; assay type: cell-based; conditions: for inhibition rate, Results (%) HL-60: 50 μg/ml; for inhibition at 50 µg/mL: Homo sapiens, HL-60, 50 μg/ml, read-out: inhibition rate, Results (%) HL-60
# [7] = test system: Hela human cervical carcinoma; test: In vitro inhibition rate to tumor cells (MTT), Hela; assay type: cell-based; conditions: 50 μg/ml; for inhibition at 50 µg/mL: Homo sapiens, HeLa, read-out: inhibition rate, Results (%) Hela
# [8] = test system: LLC mouse Lewis lung carcinoma; test: In vitro inhibition rate to tumor cells (MTT), LLC; assay type: cell-based; conditions: 50 μg/ml; for inhibition at 50 µg/mL: Mus musculus, Lewis lung carcinoma
# [9] = test system: Hela human cervical carcinoma; test: In vitro anti-tumor IC50 (MTT), Hela; assay type: cell-based; conditions: Table 4
# Procedure: (§1) (1) Single cell suspension was seeded into 96-well plates (the cells was diluted in the PRMI-1640 minimum medium to 3×10^4 cells/ml, […] diluted cells/well). […] The experiments were performed in quadruplicate.
# (§2) (2) The medium was removed. Solutions of the anti-tumor agents (50 compounds) were prepared in a freshly prepared medium at serial concentrations. […] of the solution was added into each well. Incubation was continued for 48 hours.
# (§3) (3) 20 ug of 2 mg/ml MTT was added into each well, and incubated for 4 hours.
# (§4) (4) The medium was removed from the well. The microplates were swiftly turned down to throw-off the medium. […] of DMSO was added into each well, and vortexed at room temperature for 10 minutes.
# (§5) (5) OD value (λ=570 nm) was measured with an Enzyme-Linked Detector.
# (§6) (6) The graph of cell vitality was plotted, and IC50 was calculated.
# [10] = test system: U-937 human histocytic lymphoma; test: In vitro anti-tumor IC50 (MTT), U-937; assay type: cell-based; conditions: Table 4
# Procedure: as §1, §2, §3, §4, §5, §6
# [11] = assay type: cell-based, VSV; conditions: 200 μg/ml, 24 hrs after infection
# [12] = test system: Hepatitis B virus (HBV); assay type: cell-based; conditions: 200 μg/ml; for (Value of the positive control - Measured Value) Value of the positive control × 100%: decrease of HBeAg relative to positive control; for OD450 of HBeAg: supernatant four days after infection, positive control 1.917, negative 0.057
# [13] = test system: HepG2 cells; test: Cell status of HepG2 cells treated with sample (HBV screening); assay type: cell-based; conditions: 200 μg/ml, HepG2, four days after infection
# Procedure: 1.5 Screening for the agents: The HepG2 cells were counted and 1.5×10^4 cells/well were seeded into a 96-well plate. After incubation overnight in an atmosphere of CO2 at 37° C., each of the experimental samples in a given concentration was added to the cells. After incubation at 37 °C for 24 hrs, the HepG2 treated with the samples were infected with vAcGFPHBVc of 100 MOI. A negative control and a positive control were also included. Four days after infection, the growth of the cells were observed, and the HBV e antigen in the supernatant was measured with the HBV e antigen diagnostic kit.
# [14] = test system: MDCK (dog kidney) cells; test: Toxicity TC50 of the samples in MDCK cells (influenza screening); conditions: concentration of 50% toxicity
# [15] = test system: 293 cells; test: Cell status of 293 cells treated with sample alone (herpes virus screening)
# [16] = background statement; cited from earlier work
# [17] = test system: mouse sarcoma 37; conditions: 75 mg/Kg, subcutaneous injection; cited from earlier work
# [18] = test system: uterine cervix cancer; conditions: 75 mg/Kg, subcutaneous injection; cited from earlier work
# [19] = test system: Ehrlich's ascites carcinoma (EAC); conditions: 75 mg/Kg, subcutaneous injection; cited from earlier work
# [20] = 50 μg/ml, 293 cells without virus, 12 hrs
smiles,measurement,setting,value
"CCCCNC=C1CC2(O)OC3(CC2C(C)C)C(C)CCC13.Cl (centres unmarked) [Compound 14, Curcumol n-butyl amine hydrochloride]","inhibition rate, Results (%) U-937",[1]; Table 1,82.88%
same,"inhibition rate, Results (%) U-937",[1]; Table 2 (repeated screening),81.23%
same,"inhibition rate, Results (%) A-549",[2]; Table 1,8.09%
same,"inhibition rate, Results (%) A-549",[2]; Table 2 (repeated screening),9.23%
same,"inhibition rate, Results (%) Bel-7402",[3]; Table 1,32.00%
same,"inhibition rate, Results (%) Bel-7402",[3]; Table 2 (repeated screening),23.56%
same,"inhibition rate, Results (%) MCF-7",[4]; Table 1,56.30%
same,"inhibition rate, Results (%) MCF-7",[4]; Table 2 (repeated screening),54.23%
same,"inhibition rate, Results (%) SMMC-7721",[5]; Table 1,6.14%
same,"inhibition rate, Results (%) SMMC-7721",[5]; Table 2 (repeated screening),3.21%
same,"inhibition rate, Results (%) HL-60",[6]; Table 1,2.45%
same,"inhibition rate, Results (%) HL-60",[6]; Table 2 (repeated screening),4.35%
same,"inhibition rate, Results (%) Hela",[7]; Table 1,75.46%
same,"inhibition rate, Results (%) Hela",[7]; Table 2 (repeated screening),76.32%
same,"inhibition rate, Results (%) LLC",[8]; Table 1,−10.57%
same,"inhibition rate, Results (%) LLC",[8]; Table 2 (repeated screening),−14.29%
same,"IC50 (ug/ml) against tumor cell lines, Hela",[9],1.5 µg/mL
same,"IC50 (ug/ml) against tumor cell lines, U-937",[10],0.58 µg/mL
same,"Cytopathy and cell status, Sample + VSV",[11],"Cytopathy, poor"
same,(Value of the positive control - Measured Value) Value of the positive control × 100%,[12],97.24%
same,OD450 of HBeAg,[12],0.053
same,Cell status,[13],Poor
same,TC50,[14],143.17 µg/mL
same,"Cytopathy and cell status, Sample",[15]; [20],Good
same,"Cytopathy and cell status, Sample","[15]; 200 μg/ml, 24 hrs",Poor
"C=C1CC2(O)OC3(CC2C(C)C)C(C)CCC13 (centres unmarked) [Curcumol E, Curcumol, reference compound]",inhibition at 50 µg/mL,[1]; Table 1,28%
same,inhibition at 50 µg/mL,[1]; Table 2 (repeated screening),14.3%
same,inhibition at 50 µg/mL,[1]; Table 3 (repeated screening),19.8%
same,inhibition at 50 µg/mL,[2]; Table 1,-0.57%
same,inhibition at 50 µg/mL,[2]; Table 2 (repeated screening),-11.3%
same,inhibition at 50 µg/mL,[2]; Table 3 (repeated screening),-16.6%
same,inhibition at 50 µg/mL,[3]; Table 1,4.79%
same,inhibition at 50 µg/mL,[3]; Table 2 (repeated screening),9.87%
same,inhibition at 50 µg/mL,[3]; Table 3 (repeated screening),9.78%
same,inhibition at 50 µg/mL,[4]; Table 1,55.6%
same,inhibition at 50 µg/mL,[4]; Table 2 (repeated screening),50.2%
same,inhibition at 50 µg/mL,[4]; Table 3 (repeated screening),51.2%
same,inhibition at 50 µg/mL,[5]; Table 1,-11.5%
same,inhibition at 50 µg/mL,[5]; Table 2 (repeated screening),-12.3%
same,inhibition at 50 µg/mL,[5]; Table 3 (repeated screening),-0.23%
same,inhibition at 50 µg/mL,[6]; Table 1,1.32%
same,inhibition at 50 µg/mL,[6]; Table 2 (repeated screening),1.23%
same,inhibition at 50 µg/mL,[6]; Table 3 (repeated screening),1.79%
same,inhibition at 50 µg/mL,[7]; Table 1,86.8%
same,inhibition at 50 µg/mL,[7]; Table 2 (repeated screening),70.1%
same,inhibition at 50 µg/mL,[7]; Table 3 (repeated screening),78.6%
same,inhibition at 50 µg/mL,[8]; Table 1,-3.04%
same,inhibition at 50 µg/mL,[8]; Table 2 (repeated screening),-8.9%
same,inhibition at 50 µg/mL,[8]; Table 3 (repeated screening),-14.4%
same,IC50,"[9]; Homo sapiens, HeLa, read-out: IC50 (ug/ml) against tumor cell lines, Hela",3.23 µg/mL
same,(Value of the positive control - Measured Value) Value of the positive control × 100%,[12],−38.4455%
same,OD450 of HBeAg,[12],2.654
same,Cell status,[13],Normal
same,water solubility (in words),[16],Poor water solubility
same,inhibition rate against mouse sarcoma 37 (in words),[17],high inhibition rate
same,inhibition rate against uterine cervix cancer (in words),[18],high inhibition rate
same,inhibition rate against Ehrlich's ascites carcinoma (in words),[19],high inhibition rate
same,TC50,[14],>1000 µg/mL
same,"Cytopathy and cell status, Sample",[15]; [20],Good
